# Measurements taken from BindingDB's records for doi:10.3109/14756366.2011.596836 (Artvin Coruh University, 2012).
# Columns and labels:
# Assay in all cases: CA Activity Assay
# Settings in all cases: pH 7.4
# [1] = target: Carbonic anhydrase 1 (Homo sapiens, UniProt P00915)
# Procedure: (§1) The enzymatic reaction, in a total volume of 3.0 mL, contained 1.4-mL 0.05-M Tris SO4 buffer (pH 7.4), 1-mL 3-mM 4-NPA, 0.5-mL H2O and 0.1-mL enzyme solution. A reference measurement was obtained by preparing the same cuvette without enzyme solution. The inhibitory effects of the phenolic compounds were examined. All compounds were tested in triplicate at each concentration used. Different concentrations of the compounds were used.
# [2] = target: Carbonic anhydrase 2 (Homo sapiens, UniProt P00918)
# Procedure: as §1
# [3] = target: Carbonic anhydrase 6 (Homo sapiens, UniProt P23280)
# Procedure: as §1
# Sequence of Carbonic anhydrase 1 (P00915 whole entry): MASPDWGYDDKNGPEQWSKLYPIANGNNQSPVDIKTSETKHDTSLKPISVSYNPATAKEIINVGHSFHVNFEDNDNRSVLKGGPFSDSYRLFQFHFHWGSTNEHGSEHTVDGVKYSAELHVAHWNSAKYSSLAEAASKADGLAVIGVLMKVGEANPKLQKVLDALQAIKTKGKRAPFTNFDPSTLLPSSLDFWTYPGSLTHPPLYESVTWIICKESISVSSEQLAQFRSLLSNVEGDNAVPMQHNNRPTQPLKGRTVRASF
# Sequence of Carbonic anhydrase 6 (P23280 whole entry): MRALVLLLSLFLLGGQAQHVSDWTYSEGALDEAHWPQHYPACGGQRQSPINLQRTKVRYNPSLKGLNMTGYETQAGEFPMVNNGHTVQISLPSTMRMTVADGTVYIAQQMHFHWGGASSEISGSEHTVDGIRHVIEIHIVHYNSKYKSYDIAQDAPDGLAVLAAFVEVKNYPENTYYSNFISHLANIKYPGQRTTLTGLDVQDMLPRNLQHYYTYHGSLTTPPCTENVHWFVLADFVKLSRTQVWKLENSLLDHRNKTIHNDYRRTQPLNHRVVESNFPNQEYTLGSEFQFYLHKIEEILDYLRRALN
Ki [1] [µM],Ki [2] [µM],Ki [3] [µM],SMILES
403,47.8,293,"COc1ccc(C(=O)c2ccc(OC)c(OC)c2)cc1OC [hCA inhibitor, 2]"
18,1.44,11.4,"O=C(c1ccc(O)c(O)c1)c1ccc(O)c(O)c1 [Bis(3,4-dihydroxyphenyl)methanone]"
